target: T1, human MRGPRX2 (Homo sapiens, UniProt Q96LB1); experiment: Ca2+ mobilization assay (FLIPR TETRA): inhibition of Cortistatin-14 mediated MRGPRX2 activation
T1 sequence (Q96LB1 1-330): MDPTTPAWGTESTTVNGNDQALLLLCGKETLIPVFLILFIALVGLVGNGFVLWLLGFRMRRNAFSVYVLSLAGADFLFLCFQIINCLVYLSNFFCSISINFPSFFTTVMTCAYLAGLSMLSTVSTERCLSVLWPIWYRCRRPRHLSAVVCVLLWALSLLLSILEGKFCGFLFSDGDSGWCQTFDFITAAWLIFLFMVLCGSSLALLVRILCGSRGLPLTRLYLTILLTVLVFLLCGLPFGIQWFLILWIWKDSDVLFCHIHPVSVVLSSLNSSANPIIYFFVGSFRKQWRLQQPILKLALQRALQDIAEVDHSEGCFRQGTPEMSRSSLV

SMILES	IC50
C[C@@H](C(=O)Nc1ccc(Oc2ccc(F)cc2F)cn1)N1CCC(F)(F)C(c2cc(C(O)C(F)(F)F)c[n+]([O-])c2)C1 (mixture of isomers) [Example 266, 3-(1-(1-((5-(2,4-difluorophenoxy)pyridin-2-yl)amino)-1-oxopropan-2-yl)-4,4-difluoropiperidin-3-yl)-5-(2,2,2-trifluoro-1-hydroxyethyl)pyridine 1-oxide]	10 to 100 nM
C[C@@H](C(=O)Nc1ccc(Oc2ccc(F)cc2F)cn1)N1CCC(F)(F)C(c2ccnc(CN3CC(F)(F)C3)c2)C1 (mixture of isomers) [Example 270, (2S)-2-(3-(2-((3,3-difluoroazetidin-1-yl)methyl)pyridin-4-yl)-4,4-difluoropiperidin-1-yl)-N-(5-(2,4-difluorophenoxy)pyridin-2-yl)propanamide]	10 to 100 nM
Cc1cc([C@@H]2CN([C@H](C)C(=O)Nc3ccc(Oc4ccc(F)cc4)cn3)CCC2(F)F)cc[n+]1[O-] (racemic) [Example 218, 4-((R)-4,4-difluoro-1-((R)-1-((5-(4-fluorophenoxy)pyridin-2-yl)amino)-1-oxopropan-2-yl)piperidin-3-yl)-2-methylpyridine 1-oxide and 4-((S)-4,4-difluoro-1-((S)-1-((5-(4-fluorophenoxy)pyridin-2-yl)amino)-1-oxopropan-2-yl)piperidin-3-yl)-2-methylpyridine 1-oxide]	10 to 100 nM
C[C@@H](C(=O)Nc1ccc(OCC2CC2)nn1)N1CCC(F)(F)[C@@H](c2cc[n+]([O-])cc2)C1 (single isomer, unassigned) [Example 109]	100 to 3160 nM
C[C@@H](C(=O)Nc1ccc(Cl)cn1)N1CCC[C@@H](c2ccc(=O)n(CC(F)(F)F)c2)C1 (single isomer, unassigned) [Example 167]	100 to 3160 nM
C[C@@H](C(=O)Nc1ccc(Cl)cn1)N1CCC[C@@H](c2ccc(=O)n(Cc3ccccc3)c2)C1 (single isomer, unassigned) [Example 168]	100 to 3160 nM
C[C@@H](C(=O)Nc1ccc(OCC2CC2)cn1)N1CCC[C@@H](c2c[nH]c(=O)cc2C(F)(F)F)C1 (single isomer, unassigned) [Example 169]	100 to 3160 nM
C[C@@H](C(=O)Nc1ccc(OCC2CC2)cn1)N1CCC[C@@](O)(c2ccc(=O)[nH]c2)C1 (single isomer, unassigned) [Example 171]	3160 to 31600 nM
C[C@@H](C(=O)Nc1ccc(Cl)cn1)N1CCC[C@@H](c2c[nH]c(=O)c(N)n2)C1 (single isomer, unassigned) [Example 174]	100 to 3160 nM
C[C@@H](C(=O)Nc1ccc(Cl)cn1)N1CCC[C@@H](c2c[nH]c(=O)c(CN)c2)C1 (single isomer, unassigned) [Example 175]	3160 to 31600 nM
C[C@@H](C(=O)Nc1ccc(Cl)cn1)N1CCC[C@@H](c2c[nH]c(=O)c(CO)c2)C1 (single isomer, unassigned) [Example 177]	3160 to 31600 nM
C[C@@H](C(=O)Nc1ccc(Cl)cn1)N1CCC[C@@H](c2c[nH]c(=O)c(-c3ccccc3)c2)C1 (single isomer, unassigned) [Example 178]	100 to 3160 nM
C[C@@H](C(=O)Nc1ccc(Cl)cn1)N1CCC[C@@H](c2c[nH]c(=O)c(C3CC3)c2)C1 (single isomer, unassigned) [Example 179]	100 to 3160 nM
C[C@@H](C(=O)Nc1ccc(Cl)cn1)N1CCC[C@@H](c2cc[n+]([O-])cc2)C1 (single isomer, unassigned) [Example 180]	3160 to 31600 nM
CC(C)(C(=O)Nc1ccc(OCC2CC2)cn1)N1CCC(F)(F)[C@@H](c2ccc(=O)[nH]c2)C1 (single isomer, unassigned) [Example 183]	100 to 3160 nM
Cc1cc([C@@H]2CCCN([C@@H](C)C(=O)Nc3ccc(Cl)cn3)C2)c[nH]c1=O (single isomer, unassigned) [Example 184]	3160 to 31600 nM
C[C@@H](C(=O)Nc1ccc(OCC2CC2)cn1)N1CCC[C@@H](c2ccc(=O)[nH]n2)C1 (single isomer, unassigned) [Example 185]	100 to 3160 nM
C[C@@H](C(=O)Nc1ccc(F)cn1)N1CCC(F)(F)[C@@H](c2c[nH]c(=O)c(CN)c2)C1 (single isomer, unassigned) [Example 201]	100 to 3160 nM
C[C@@H](C(=O)Nc1ccc(OCC2CC2)nn1)N1CCC(F)(F)[C@@H](c2c[nH]c(=O)c(CN3CCOCC3)c2)C1 (single isomer, unassigned) [Example 225]	100 to 3160 nM
CC(=O)NCc1cc([C@H]2CN([C@@H](C)C(=O)Nc3ccc(Oc4ccc(F)cc4)cn3)CCC2(F)F)c[nH]c1=O (single isomer, unassigned) [Example 245]	≤ 10 nM
C[C@@H](C(=O)Nc1ccc(Oc2ccc(F)cc2F)cn1)N1CCC(F)(F)[C@@H](c2cc[n+]([O-])c(C(N)=O)c2)C1 (single isomer, unassigned) [Example 258]	≤ 10 nM
C[C@@H](C(=O)Nc1ccc(OCC2CC2)cn1)[C@H]1CCC(F)(F)[C@@H](c2ccc(=O)[nH]c2)C1 (single isomer, unassigned) [Example 275]	≤ 10 nM
C[C@@H](C(=O)Nc1ccc(OCC2CC2)nn1)N1CCC(F)(F)[C@@H](c2ccc(=O)n(CC(F)(F)F)c2)C1 [Example 1, (S)—N-(6-(cyclopropylmethoxy)pyridazin-3-yl)-2-((S)-4,4-difluoro-3-(6-oxo-1-(2,2,2-trifluoroethyl)-1,6-dihydropyridin-3-yl)piperidin-1-yl)propanamide]	≤ 10 nM
C[C@@H](C(=O)Nc1ccc(F)cn1)N1CCC(F)(F)[C@@H](c2ccc(=O)n(CC(F)(F)F)c2)C1 [Example 3, (S)-2-((S)-4,4-difluoro-3-(6-oxo-1-(2,2,2-trifluoroethyl)-1,6-dihydropyridin-3-yl)piperidin-1-yl)-N-(5-fluoropyridin-2-yl)propanamide]	≤ 10 nM
C[C@@H](C(=O)Nc1ccc(Oc2ccc(F)cc2F)cn1)N1CCC(F)(F)[C@@H](c2ccc(=O)[nH]c2)C1 [Example 4, (S)-2-((S)-4,4-difluoro-3-(6-oxo-1,6-dihydropyridin-3-yl)piperidin-1-yl)-N-(5-(2,4-difluorophenoxy)pyridin-2-yl)propanamide]	≤ 10 nM

Now from value to molecule:

IC50	SMILES
≤ 10 nM	CC(=O)NCc1cc(C2CN(C(C)C(=O)Nc3ccc(Oc4ccc(F)cc4F)cn3)CCC2(F)F)cc[n+]1[O-] (mixture of isomers) [Example 262, 2-(acetamidomethyl)-4-(1-(1-((5-(2,4-difluorophenoxy)pyridin-2-yl)amino)-1-oxopropan-2-yl)-4,4-difluoropiperidin-3-yl)pyridine 1-oxide]
≤ 10 nM	CC(C(=O)Nc1ccc(Oc2ccc(F)cc2F)cn1)N1CCC(F)(F)C(c2ccnc(CN)c2)C1 (mixture of isomers) [Example 264, 2-(3-(2-(aminomethyl)pyridin-4-yl)-4,4-difluoropiperidin-1-yl)-N-(5-(2,4-difluorophenoxy)pyridin-2-yl)propanamide]
≤ 10 nM	C[C@@H](C(=O)Nc1ccc(Oc2ccc(F)cc2F)cn1)N1CCC(F)(F)C(c2cncc(C(O)C(F)(F)F)c2)C1 (mixture of isomers) [Example 265, (2S)-2-(4,4-difluoro-3-(5-(2,2,2-trifluoro-1-hydroxyethyl)pyridin-3-yl)piperidin-1-yl)-N-(5-(2,4-difluorophenoxy)pyridin-2-yl)propanamide]
≤ 10 nM	C[C@@H](C(=O)Nc1ccc(Oc2ccc(F)cc2F)cn1)N1CCC(F)(F)C(c2ccnc(C(N)=O)c2)C1 (mixture of isomers) [Example 261, 4-(1-((S)-1-((5-(2,4-difluorophenoxy)pyridin-2-yl)amino)-1-oxopropan-2-yl)-4,4-difluoropiperidin-3-yl)picolinamide]
≤ 10 nM	C[C@@H](C(=O)Nc1ccc(OCC2CC2)cn1)N1CCC(F)(F)[C@@H](c2ccc(=O)n(CC(F)(F)F)c2)C1 (single isomer, unassigned) [Example 2]
≤ 10 nM	C[C@@H](C(=O)Nc1ccc(F)cn1)N1CCC(F)(F)[C@@H](c2cn(CC(F)(F)F)c(=O)cn2)C1 (single isomer, unassigned) [Example 103]
≤ 10 nM	C[C@@H](C(=O)Nc1ccc(OCC2CC2)nn1)N1CCC(F)(F)[C@@H](c2c[nH]c(=O)c(N)n2)C1 (single isomer, unassigned) [Example 104]
≤ 10 nM	C[C@@H](C(=O)Nc1ccc(OCC2CC2)nn1)N1CCC(F)(F)[C@@H](c2c[nH]c(=O)c([C@H](O)C(F)(F)F)c2)C1 (single isomer, unassigned) [Example 210, (S)-N-(6-(cyclopropylmethoxy)pyridazin-3-yl)-2-((S)-4,4-difluoro-3-(6-oxo-5-((S)-2,2,2-trifluoro-1-hydroxyethyl)-1,6-dihydropyridin-3-yl)piperidin-1-yl)propanamide or (S)-N-(6-(cyclopropylmethoxy(pyridazin-3-yl)-2-((S)-4,4-difluoro-3-(6-oxo-5-((R)-2,2,2-trifluoro-1-hydroxyethyl)-1,6-dihydroypridin-3-yl)piperidin-1-yl)propanamide]
≤ 10 nM	C[C@@H](C(=O)Nc1ccc(Oc2ccc(F)cc2)cn1)N1CCC(F)(F)[C@@H](c2c[nH]c(=O)c([C@H](N)C(F)(F)F)c2)C1 (single isomer, unassigned) [Example 233]
≤ 10 nM	C[C@@H](C(=O)Nc1ccc(Oc2ccc(F)cc2)cn1)N1CCC(F)(F)[C@@H](c2c[nH]c(=O)c([C@@H](N)C(F)(F)F)c2)C1 (single isomer, unassigned) [Example 234]
≤ 10 nM	C[C@@H](C(=O)Nc1ccc(Oc2ccc(F)cc2F)cn1)N1CCC(F)(F)[C@@H](c2c[nH]c(=O)c([C@H](N)C(F)(F)F)c2)C1 (single isomer, unassigned) [Example 235]
≤ 10 nM	C[C@@H](C(=O)Nc1ccc(Oc2ccc(F)cc2F)cn1)N1CCC(F)(F)[C@@H](c2c[nH]c(=O)c([C@@H](N)C(F)(F)F)c2)C1 (single isomer, unassigned) [Example 236]

— patent US11976057B2, “MrgX2 antagonists” (GlaxoSmithKline Intellectual Property Development Limited, priority 2020, dated 2024)
